For assay [1], the target named is Tlp11-LBD homologue (WP_257425542.1, residues 31-331). The experiment in a line: MST of Tlp11-LBD homologue. The assay is classed as binding, Campylobacter upsaliensis. The note with it: C. upsaliensis LBD. Here is the method:
(§1) The His-tag dye (MO-L018 RED-tris-NTA, NanoTemper, Germany) was adjusted to a final concentration of 25 nM and used to label the purified protein with a His-tag. The compound was diluted to a series of concentrations in phosphate-buffered saline ([Duan et al., 2023]) with 0.05% Tween 20 (PBS-T) buffer and mixed in a ratio of 1:1 with protein. The mixtures were loaded into capillaries (Monolith™ Series capillaries, NanoTemper) by means of capillary action. Thermophoresis was measured using a Monolith™ NT.115 (NanoTemper) instrument, with 40% excitation and 40% MST power configuration. The time-traces of changes in fluorescence, which reflected the thermophoretic movement of labeled protein affected by different concentrations of compound were recorded, and the dose–response curves were fitted with the ‘temperature jump and thermophoresis’ mode. Data analysis was performed using MO. Affinity Analysis version 2.3 (NanoTemper) and Prism version 8.0.2 (GraphPad Software, United States).
(§2) To evaluate whether these potential Tlp11-LBD homologues could bind to methyl pyruvate, we conducted a structural analysis of the LBDs of six chemoreceptors from C. coli, H. equorum, H. himalayensis, H. mesocricetorum, H. ganmani, and C. upsaliensis using Alphafold 2. […]

A further assay has as its target Tlp11-LBD Y291A. Nature of the assay: MST of Tlp11-LBD mutant Y291A. Type of assay: binding, C. jejuni ATCC 33560. The following applies: max ligand 2.5 mM. Here is the method:
as §1
(§3) In order to confirm the contribution of L264, N268, I276, Y291, V318, and T320 to the binding to methyl pyruvate, we generated Tlp11-LBD proteins with an alanine point mutation at individual residues, to obtain the mutant proteins L264A, N268A, I276A, Y291A, V318A, and T320A, and then analyzed the binding affinities of methyl pyruvate to these mutants using MST. […]

The target in assay [2] is Tlp11-LBD homologue (WP_066386874.1, residues 33-320). The experiment in a line: MST of Tlp11-LBD homologue. Type of assay: binding, Helicobacter himalayensis. The following applies: H. himalayensis LBD. Here is the method: as §1, §2
The target of another assay is Tlp11-LBD N268A. Nature of the assay: MST of Tlp11-LBD mutant N268A. Type of assay: binding, C. jejuni ATCC 33560. The note with it: max ligand 2.5 mM. The protocol:
as §1, §3

Assay [3] relates to C. jejuni WT NCTC 11168 cells. The assay is classed as cell-based, Campylobacter jejuni. The note with it: WT NCTC 11168 cells; microfluidic device, 30 min.
A further assay deals with Tlp11-LBD I276A. The experiment in a line: MST of Tlp11-LBD mutant I276A. Type of assay: binding, C. jejuni ATCC 33560. The following applies: max ligand 2.5 mM. The protocol:
as §1, §3

Assay [4] concerns C. jejuni NCTC 11168ΩTlp11 cells. Type of assay: cell-based, Campylobacter jejuni. The note with it: 11168ΩTlp11 cells; microfluidic device, 30 min.

Regarding `COC(=O)C(C)=O` [methyl pyruvate, Methyl pyruvate], the Kd came to 1900 ± 500 µM in assay [1] and 1100 ± 300 µM in assay [2]. The “Kd (binding curve fit)” value on Tlp11-LBD Y291A, at Tlp11-LBD N268A and at Tlp11-LBD I276A was “unable to obtain fitted Kd values” in each case. For the same compound, the chemotactic response entry in assay [3] was “failed to show any chemotaxis”; in assay [4], “robust attractant response”.

Values taken from publication PMC11111895, “Identification of a dCache-type chemoreceptor in Campylobacter jejuni that specifically mediates chemotaxis towards methyl pyruvate” (Frontiers in Microbiology, 2024).
